Measurements: PubChem BioAssay AID1963981 (Molecular Pharmacology Branch, DTP, NCI, 2024)

System: 354836-022-R-J1-PDC multicell spheroid viability
Assay: Anticancer human tumor 354836-022-R-J1-PDC patient-derived head and neck squamous cell carcinoma cell line growth inhibition [PI3K]
Details: for IC50: curve of first compound; for viability, T/C: stronger effect = lower value; active = viability on the fitted dose curve at most 10% of control; inactive = the rest
Method in brief: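 Multi-cell spheroids combine tumor cells with HUVEC and human MSCs, treated with targeted agents alone or with inavolisib, alpelisib, duvelisib or copanlisib. Concentrations fall in half-log steps from at or near clinical Cmax, or from 10 microM where Cmax is unknown; viability read-out.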

[1] = second compound 0.0316 µM, first compound 0.0316 µM
[2] = second compound 0.0316 µM, first compound 0.1 µM
[3] = second compound 0.0316 µM, first compound 0.316 µM
[4] = second compound 0.0316 µM, first compound 1 µM
[5] = second compound 0.0316 µM, first compound 3.16 µM
[6] = second compound 0.0316 µM, first compound 10 µM
[7] = second compound 0.1 µM, first compound 0.0316 µM
[8] = second compound 0.1 µM, first compound 0.1 µM
[9] = second compound 0.1 µM, first compound 0.316 µM
[10] = second compound 0.1 µM, first compound 1 µM
[11] = second compound 0.1 µM, first compound 3.16 µM
[12] = second compound 0.1 µM, first compound 10 µM
[13] = second compound 0.316 µM, first compound 0.0316 µM
[14] = second compound 0.316 µM, first compound 0.1 µM
[15] = second compound 0.316 µM, first compound 0.316 µM
[16] = second compound 0.316 µM, first compound 1 µM
[17] = second compound 0.316 µM, first compound 3.16 µM
[18] = second compound 0.316 µM, first compound 10 µM
[19] = second compound 1 µM, first compound 0.0316 µM
[20] = second compound 1 µM, first compound 0.1 µM
[21] = second compound 1 µM, first compound 0.316 µM
[22] = second compound 1 µM, first compound 1 µM
[23] = second compound 1 µM, first compound 3.16 µM
[24] = second compound 1 µM, first compound 10 µM
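Note: spheroids exposed to agents for seven days before the viability read.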

C=CC(=O)N1CCN(c2nc(=O)n(-c3c(C)ccnc3C(C)C)c3nc(-c4c(O)cccc4F)c(F)cc23)C(C)C1 (centres undefined) + COc1c(OCCCN2CCOCC2)ccc2c3n(c(=NC(=O)c4cnc(N)nc4)nc12)CCN3
> 10 µM: IC50 (second compound 0.00316 µM) | IC50 (second compound 0.01 µM) | IC50 (second compound 0.0316 µM) | IC50 (second compound 0.1 µM)
inactive: viability, T/C (second compound 0.00316 µM, first compound 0.0316 µM) 96.3% | viability, T/C (second compound 0.00316 µM, first compound 0.1 µM) 106% | viability, T/C (second compound 0.00316 µM, first compound 0.316 µM) 109% | viability, T/C (second compound 0.00316 µM, first compound 1 µM) 108% | viability, T/C (second compound 0.00316 µM, first compound 3.16 µM) 118% | viability, T/C (second compound 0.00316 µM, first compound 10 µM) 116% | viability, T/C (second compound 0.01 µM, first compound 0.0316 µM) 97.7% | viability, T/C (second compound 0.01 µM, first compound 0.1 µM) 99% | viability, T/C (second compound 0.01 µM, first compound 0.316 µM) 98.5% | viability, T/C (second compound 0.01 µM, first compound 1 µM) 102% | viability, T/C (second compound 0.01 µM, first compound 3.16 µM) 105% | viability, T/C (second compound 0.01 µM, first compound 10 µM) 90.4% | viability, T/C [1] 83.2% | viability, T/C [2] 83.5% | viability, T/C [3] 72% | viability, T/C [4] 82.6% | viability, T/C [5] 110% | viability, T/C [6] 95.4% | viability, T/C [7] 61.4% | viability, T/C [8] 45.3% | viability, T/C [9] 59.2% | viability, T/C [10] 62.8% | viability, T/C [11] 61.5% | viability, T/C [12] 55.6% | viability, T/C [13] 14.3% | viability, T/C [14] 16.2% | viability, T/C [15] 16.2% | viability, T/C [16] 18.4% | viability, T/C [17] 25.9% | viability, T/C [18] 13%
active: viability, T/C [19] 1.79% | viability, T/C [20] 1.75% | viability, T/C [21] 1.72% | viability, T/C [22] 2.49% | viability, T/C [23] 1.82% | viability, T/C [24] 1.3%
< 0.0316 µM: IC50 (second compound 0.316 µM) | IC50 (second compound 1 µM)

C=CC(=O)N1CCN(c2nc(=O)n(-c3c(C)ccnc3C(C)C)c3nc(-c4c(O)cccc4F)c(F)cc23)C(C)C1 (centres undefined) + CC(Nc1ncnc2nc[nH]c12)c1cc2cccc(Cl)c2c(=O)n1-c1ccccc1
> 10 µM: IC50 (second compound 0.0316 µM) | IC50 (second compound 0.1 µM) | IC50 (second compound 0.316 µM) | IC50 (second compound 1 µM) | IC50 (second compound 3.16 µM) | IC50 (second compound 10 µM)
inactive: viability, T/C [1] 93.1% | viability, T/C [2] 84.5% | viability, T/C [3] 103% | viability, T/C [4] 103% | viability, T/C [5] 98.7% | viability, T/C [6] 94.1% | viability, T/C [7] 98.7% | viability, T/C [8] 94.5% | viability, T/C [9] 96.4% | viability, T/C [10] 115% | viability, T/C [11] 108% | viability, T/C [12] 95.5% | viability, T/C [13] 110% | viability, T/C [14] 106% | viability, T/C [15] 103% | viability, T/C [16] 116% | viability, T/C [17] 106% | viability, T/C [18] 88.1% | viability, T/C [19] 103% | viability, T/C [20] 98.4% | viability, T/C [21] 108% | viability, T/C [22] 102% | viability, T/C [23] 98.7% | viability, T/C [24] 97.7% | viability, T/C (second compound 3.16 µM, first compound 0.0316 µM) 96% | viability, T/C (second compound 3.16 µM, first compound 0.1 µM) 114% | viability, T/C (second compound 3.16 µM, first compound 0.316 µM) 106% | viability, T/C (second compound 3.16 µM, first compound 1 µM) 115% | viability, T/C (second compound 3.16 µM, first compound 3.16 µM) 115% | viability, T/C (second compound 3.16 µM, first compound 10 µM) 93.2% | viability, T/C (second compound 10 µM, first compound 0.0316 µM) 98% | viability, T/C (second compound 10 µM, first compound 0.1 µM) 89.4% | viability, T/C (second compound 10 µM, first compound 0.316 µM) 90.1% | viability, T/C (second compound 10 µM, first compound 1 µM) 99.2% | viability, T/C (second compound 10 µM, first compound 3.16 µM) 102% | viability, T/C (second compound 10 µM, first compound 10 µM) 88.1%
